Assay results taken from patent publication US10189863B2, “5,6-dihydro-4H-benzo[b]thieno-[2,3-d]azepine derivatives” (PULMOCIDE LIMITED, priority 2014, dated 2019).

Assays:
RSV B Washington strain = experiment: Assessment of RSV induced CPE in HEp2 cells (RSV B Washington strain); format: cell-based; details: human respiratory syncytial virus, HEp2 cells; for IC50: HEp-2, 144 h, 1 MOI, 6 days, read-out: RSV B CPE IC50; for inhibition at 1 µg/mL: HEp-2, Inhibition (%) at 1 μg/mL, read-out: RSV B CPE % Inhibition
Description: (§1) Assessment of RSV Induced CPE in HEp2 Cells
(§2) HEp2 cells were seeded (10^3/well/50 μL) in 384-well plates (Catalogue number 353962, BD Falcon, Oxford, UK) in […] containing 2 mM L-glutamine and 1 mM sodium pyruvate one day before infection. RSV A2 strain (#0709161v, NCPV, Public Health England, Wiltshire) or RSV B Washington strain (VR-1580, ATCC, Manassas, Va. 20108) virus solutions were prepared in serum free-DMEM with 2 mM L-glutamine and 1 mM sodium pyruvate, and then added (50 μL/well) to achieve a final virus concentration of 1 MOI. Simultaneously test compounds (0.5 μL DMSO solution) were added to 100 μL of HEp2 cell culture with virus solution to provide a final DMSO solution of 0.5%. Plates were incubated (37° C./5% CO2) for 5 days for studies using RSV A2 strain or 6 days for those using RSV B strain, and then resazurin sodium salt (5 μL of 0.03% solution; Sigma-Aldrich, Dorset, UK) was added to each well and the plate incubated for a further 6 hr (37° C./5% CO2). The fluorescence of each well [545 nm (excitation)/590 nm (emission)] was determined using a multi-scanner (Clariostar: BMG, Buckinghamshire, UK). The percentage inhibition for each well was calculated and the IC50, IC75 and IC90 values were calculated from the concentration-response curve generated for each test compound.

RSV A2 strain = experiment: Assessment of RSV induced CPE in HEp2 cells (RSV A2 strain); format: cell-based; details: human respiratory syncytial virus, HEp2 cells; for IC50: HEp-2, 120 h, 1 MOI, 5 days, read-out: RSV A2 CPE IC50; for inhibition at 0.1 µg/mL / inhibition at 0.01 µg/mL: HEp-2; for inhibition at 0.1 µg/mL: Inhibition (%) at 0.1 μg/mL, read-out: RSV A2 CPE % Inhibition; for inhibition at 0.01 µg/mL: Inhibition (%) at 0.01 μg/mL
Description: as §1, §2

[1] = Cell viability: resazurin assay; format: cell-based, human; details: human, HEp2 cells
Description: Cell Viability: Resazurin Assay
HEp2 cells were seeded in 384-well plates (10^3/well/50 μL; BD Falcon Ref 353962) in FBS DMEM (5%, containing 2 mM L-glutamine and 1 mM sodium pyruvate) one day before experimentation. Serum-free DMEM (50 μL) was added to test wells while for control wells the media was removed and sterile water (100 μL) was added. Test compounds (0.5 μL DMSO solution) were added to give a final DMSO concentration of 0.5%. Hep2 cells were incubated with each test compound for 5 days (37° C./5% CO2 in 5% FBS) and then resazurin stock solution (5 μL; 0.03%) was added to each well and the plate incubated for a further 6 hr (37° C./5% CO2). The fluorescence of each well at 545 nm (excitation) and 590 nm (emission) was determined using a multi-scanner (Clariostar: BMG Labtech). The percentage loss of cell viability was calculated for each well relative to vehicle (0.5% DMSO) treatment.
Any apparent increase in cell viability associated with test compound treatment relative to vehicle is consequently tabulated as a negative percentage. Where appropriate, a CC50 value was calculated from the concentration-response curve generated from the concentration-response curve for each test compound.

SMILES | IC50 (RSV B Washington strain) | inhibition at 1 µg/mL (RSV B Washington strain) | IC50 (RSV A2 strain) | inhibition at 0.1 µg/mL (RSV A2 strain) | CC50 at 5 days [1] | inhibition at 0.01 µg/mL (RSV A2 strain)
Cc1cc(C(=O)Nc2ccc(C(=O)N3CCc4cc(C(=O)Nc5c(C)cccc5F)sc4-c4ccccc43)cc2)c(N2CC3(CCOCC3)C2)nc1C [Example 44, 6-(4-(5,6-dimethyl-2-(7-oxa-2-azaspiro[3.5]nonan-2-yl)nicotinamido)benzoyl)-N-(2-fluoro-6-methylphenyl)-5,6-dihydro-4H-benzo[b]thieno[2,3-d]azepine-2-carboxamide] | 16.2 nM | 76% | 0.13 nM | 100% | > 13700 nM | –
Cc1cccc(F)c1NC(=O)c1cc2c(s1)-c1ccccc1N(C(=O)c1ccc(NC(=O)c3cc(F)cnc3N3CC4(CCOCC4)C3)cc1)CC2 [Example 68, 6-(4-(5-fluoro-2-(7-oxa-2-azaspiro[3.5]nonan-2-yl)nicotinamido)benzoyl)-N-(2-fluoro-6-methylphenyl)-5,6-dihydro-4H-benzo[b]thieno[2,3-d]azepine-2-carboxamide] | 17.1 nM | 100% | 0.087 nM | – | > 13900 nM | 90%
Cc1cnc(N2CC3(CCOCC3)C2)c(C(=O)Nc2ccc(C(=O)N3CCc4cc(C(=O)Nc5c(C)cccc5C)sc4-c4ccccc43)cc2)c1 [Example 64, N-(2,6-dimethylphenyl)-6-(4-(5-methyl-2-(7-oxa-2-aza-spiro[3.5]nonan-2-yl)nicotinamido)benzoyl)-5,6-dihydro-4H-benzo[b]thieno[2,3-d]azepine-2-carboxamide] | 1.1 nM | 100% | 0.25 nM | – | > 14000 nM | 100%
O=C(Nc1c(F)cc(F)cc1F)c1cc2c(s1)-c1ccccc1N(C(=O)c1ccc(NC(=O)c3cccnc3N3CC4(CCOCC4)C3)cc1)CC2 [Example 28, 6-(4-(2-(7-oxa-2-azaspiro[3.5]nonan-2-yl)nicotinamido)benzoyl)-N-(2,4,6-trifluorophenyl)-5,6-dihydro-4H-benzo[b] thieno[2,3-d]azepine-2-carboxamide] | 41.4 nM | 66% | 0.17 nM | 96% | > 13800 nM | –
O=C(Nc1ccc(F)cc1F)c1cc2c(s1)-c1ccccc1N(C(=O)c1ccc(NC(=O)c3cc4ccccc4nc3N3CC4(CCOCC4)C3)cc1)CC2 [Example 85, 6-(4-(2-(7-oxa-2-azaspiro[3.5]nonan-2-yl)quinoline-3-carboxamido)benzoyl)-N-(2,4-difluorophenyl)-5,6-dihydro-4H-benzo[b]thieno[2,3-d]azepine-2-carboxamide] | 13.5 nM | 91% | 3.5 nM | 95% | > 13200 nM | –
Cc1cnc(N2CC3(CCOCC3)C2)c(C(=O)Nc2ccc(C(=O)N3CCc4cc(C(=O)Nc5c(O)cccc5F)sc4-c4ccccc43)cc2)c1 [Example 52, N-(2-fluoro-6-hydroxyphenyl)-6-(4-(5-methyl-2-(7-oxa-2-azaspiro[3.5]nonan-2-yl)nicotinamido)benzoyl)-5,6-dihydro-4H-benzo[b]thieno[2,3-d]azepine-2-carboxamide] | 3.3 nM | 100% | 0.067 nM | 96% | > 13900 nM | –
CCc1ccccc1NC(=O)c1cc2c(s1)-c1ccccc1N(C(=O)c1ccc(NC(=O)c3cccnc3N3CC4(CCOCC4)C3)cc1)CC2 [Example 17, 6-(4-(2-(7-oxa-2-azaspiro[3.5]nonan-2-yl)nicotinamido)benzoyl)-N-(2-ethylphenyl)-5,6-dihydro-4H-benzo[b]thieno [2,3-d]azepine-2-carboxamide] | 204 nM | 77% | 0.66 nM | 100% | > 14300 nM | –
COCCOc1cccc(F)c1NC(=O)c1cc2c(s1)-c1ccccc1N(C(=O)c1ccc(NC(=O)c3cc(C)cnc3N3CC4(CCOCC4)C3)cc1)CC2 [Example 55, N-(2-fluoro-6-(2-methoxyethoxy)phenyl)-6-(4-(5-methyl-2-(7-oxa-2-azaspiro[3.5]nonan-2-yl)nicotinamido)benzoyl)-5,6-dihydro-4H-benzo[b]thieno[2,3-d]azepine-2-carboxamide] | 16.2 nM | 100% | 0.15 nM | – | > 12900 nM | 100%
Cc1cccc(F)c1NC(=O)c1cc2c(s1)-c1ccccc1N(C(=O)c1ccc(NC(=O)c3cc(C4CC4)cnc3N3CC4(CCOCC4)C3)cc1)CC2 [Example 11, 6-(4-(5-Cyclopropyl-2-(7-oxa-2-azaspiro[3,5]nonan-2-yl)nicotinamido)benzoyl)-N-(2-fluoro-6-methylphenyl)-5,6-dihydro-4H-benzo[b]thieno[2,3-d]azepine-2-carboxamide] | 25.9 nM | 95% | 0.28 nM | 93% | > 13500 nM | –
Cc1cnc(N2CC3(CCOCC3)C2)c(C(=O)Nc2ccc(C(=O)N3CCc4cc(C(=O)Nc5c(F)cccc5C#N)sc4-c4ccccc43)cc2)c1 [Example 51, N-(2-cyano-6-fluorophenyl)-6-(4-(5-methyl-2-(7-oxa-2-azaspiro[3.5]nonan-2-yl)nicotinamido)benzoyl)-5,6-dihydro-4H-benzo[b]thieno[2,3-d]azepine-2-carboxamide] | 10.1 nM | 99% | 1.1 nM | 98% | > 13800 nM | –
O=C(Nc1c(F)cccc1Cl)c1cc2c(s1)-c1ccccc1N(C(=O)c1ccc(NC(=O)c3cccnc3N3CC4(CCOCC4)C3)cc1F)CC2 [Example 31, 6-(4-(2-(7-oxa-2-azaspiro[3.5]nonan-2-yl)nicotinamido)-2-fluorobenzoyl)-N-(2-chloro-6-fluorophenyl)-5,6-dihydro-4H-benzo[b]thieno[2,3-d]azepine-2-carboxamide] | 49.6 nM | 90% | 0.1 nM | 100% | > 13500 nM | –
C#Cc1ccc(NC(=O)c2cc3c(s2)-c2ccccc2N(C(=O)c2ccc(NC(=O)c4cccnc4N4CC5(CCOCC5)C4)cc2)CC3)cc1 [Example 18, 6-(4-(2-(7-oxa-2-azaspiro[3.5]nonan-2-yl)nicotinamido)benzoyl)-N-(4-ethynylphenyl)-5,6-dihydro-4H-benzo[b] thieno[2,3-d]azepine-2-carboxamide] | > 1440 nM | 18% | 0.16 nM | 75% | > 14400 nM | –
Cc1cnc(N2CCC3(CC2)COC3)c(C(=O)Nc2ccc(C(=O)N3CCc4cc(C(=O)Nc5c(F)cccc5F)sc4-c4ccccc43)cc2)c1 [Example 92, N-(2,6-difluorophenyl)-6-(4-(5-methyl-2-(2-oxa-7-aza-spiro[3.5]nonan-7-yl)nicotinamido)benzoyl)-5,6-dihydro-4H-benzo[b]thieno[2,3-d]azepine-2-carboxamide] | 60.8 nM | 100% | 0.17 nM | – | > 13900 nM | 93%
Cc1cnc(N2CCC3(CC2)COC3)c(C(=O)Nc2ccc(C(=O)N3CCc4cc(C(=O)Nc5c(F)cccc5Cl)sc4-c4ccccc43)cc2)c1 [Example 93, N-(2-chloro-6-fluorophenyl)-6-(4-(5-methyl-2-(2-oxa-7-azaspiro[3.5]nonan-7-yl)nicotinamido)benzoyl)-5,6-dihydro-4H-benzo[b]thieno[2,3-d]azepine-2-carboxamide] | 59.3 nM | 100% | 0.56 nM | – | > 13600 nM | 98%
